Among the data in patent publication US4962109A, “Insecticidally and acaricidally active pyrimidine esters and intermediates therefor” (Imperial Chemical Industries PLC, priority 1985, dated 1990) are mortality and pest or weed control values, retold here.

What all share (type): in vivo
Assay [1] has as its system Tetranychus urticae (spider mites - adult). The assay is described as follows: Contact test on spider mites - adult (TUa), French bean leaf, mortality. Conditions: 72 h, 500 ppm, contact, 3 days, read-out: TUa grading of mortality. An outline of the steps: (§1)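 Compound dissolved in acetone, diluted with water containing 0.01% by weight wetting agent to 500, 250 or 100 ppm. Pests held on host plant or foodstuff; pests and/or medium treated. Mortality scored one to three days later as grade A (80-100%), B (50-79%) or C (<50%) mortality or knockdown.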

In assay [2] the test system is Myzus persicae (aphids). Briefly: Contact test on aphids (MP), Chinese Cabbage leaf, mortality. Conditions: 72 h, 500 ppm, contact, 3 days, read-out: MP grading of mortality. An outline of the steps:
as §1

Assay [3] concerns Tetranychus urticae (spider mites - ova). The assay is described as follows: Contact test on spider mites - ova (TUe), French bean leaf, mortality. The settings on record: 144 h, 500 ppm, contact, 6 days, read-out: TUe grading of mortality. An outline of the steps: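 Graded read-out: A 80-100%, B 50-79%, C below 50% mortality or knockdown, assessed usually 1-3 days post-treatment. Liquid preparations at 500, 250 or 100 ppm by weight, from acetone solution diluted in water with 0.01% wetting agent, applied to pests and/or their host plant or food medium.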

The subject of assay [4] is Musca domestica (houseflies - adults). Briefly: Contact test on houseflies - adults (MD), Cotton wool/sugar, mortality. The settings on record: 72 h, 500 ppm, contact, 3 days, read-out: MD grading of mortality. In a few lines:
as §1

In assay [5] the test system is Heliothis virescens (tobacco budworm - larvae). Briefly: Residual test on tobacco budworm larvae (HV), Cotton leaf, mortality. Conditions: 48 h, read-out: HV grading of mortality. In a few lines:
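Product in acetone diluted with water containing 0.01% Lissapol NX, at 500, 250 or 100 ppm; pests and/or host medium (here cotton leaf) treated. Mortality scored one to three days later, graded A (80-100%), B (50-79%), C (<50%).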

The subject of assay [6] is Diabrotica balteata (rootworm larvae). The assay is described as follows: Residual test on rootworm larvae (DB), Filter paper/maize seed, mortality. Conditions: 48 h, 500 ppm, residual, 2 days, read-out: DB grading of mortality. In a few lines: as §1
Assay [7] has as its system Nephotettix cincticeps (green leaf hopper - nymphs). The assay is described as follows: Contact test on green leaf hopper nymphs (NC), Rice plant, mortality. The settings on record: 48 h, 500 ppm, contact, 2 days, read-out: NC grading of mortality. An outline of the steps: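 Product dissolved in acetone, diluted in water with 0.01% wetting agent to 500, 250 or 100 ppm; nymphs and/or host rice plants treated. Mortality or knockdown assessed 1–3 days later, graded A (80-100%), B (50-79%), C (<50%).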

Assay [8] has as its system Spodoptera exigua (lesser army worm - larvae). The assay is described as follows: Residual test on lesser army worm larvae (SP), Cotton leaf, mortality. Conditions: 48 h, 500 ppm, residual, 2 days, read-out: SP grading of mortality. An outline of the steps: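 Product dissolved in acetone and diluted in water with 0.01% wetting agent to 500, 250 or 100 ppm; larvae and/or cotton leaf host treated. Mortality or knockdown scored one to three days later and graded A (80-100%), B (50-79%) or C (<50%).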

The subject of assay [9] is Musca domestica (houseflies - adults). The assay is described as follows: Knockdown test on houseflies - adults (MD/KD), Cotton wool/sugar. The settings on record: 500 ppm, 4 hours, read-out: MD/KD grading of knockdown. In a few lines:
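Adult houseflies exposed to the compound at 500, 250 or 100 ppm in acetone/water with 0.01% wetting agent, on a cotton wool/sugar medium. Knockdown and mortality assessed, graded A (80-100%), B (50-79%) or C (<50%).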

Assay [10] deals with Blattella germanica (cockroach nymphs). The assay is described as follows: Contact test on cockroach nymphs (BG/C), Plastic pot, mortality. Conditions: 48 h, 500 ppm, contact, 2 days, read-out: BG/C grading of mortality. In a few lines: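 Cockroach nymphs and/or their medium were treated with aqueous preparations at 500, 250 or 100 ppm (acetone solution diluted in water with 0.01% Lissapol NX wetting agent). Mortality or knockdown was assessed typically 1–3 days later and graded A (80–100%), B (50–79%) or C (<50%).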

With `CC(C)(C)c1ncc(C(C(=O)OCc2c(F)c(F)c(COCc3ccc(Cl)cc3)c(F)c2F)C(C)(C)C)cn1` (racemic) [Compound 163, 4-[(4-chlorobenzyloxy)methyl]-2,3,5,6-tetrafluorobenyl (RS)-2-[2-(1,1-dimethylethyl)pyrimidin-5-yl]-3,3-dimethylbutanoate], the mortality at 500 ppm in assay [1] was 80 to 100%; in assay [2], < 50%; in assay [3] it was < 50%; in [4], < 50%; in assay [5] it was < 50%; in assay [6], < 50%. For the same compound, the mortality at 500 ppm in assay [7] is < 50%; in assay [8] it was 50 to 79%; in assay [10] it was < 50%. Moreover, the pest or weed control at 500 ppm in [9] is < 50%.
Take `CSc1c(COC(=O)C(c2cnc(C(C)(C)C)nc2)C(C)(C)C)cc(F)c(C)c1F` (racemic) [Compound 182, 4-methyl-2-thiomethyl-3,5-difluorobenzyl (RS)-2-[2-(1,1-dimethylethyl)pyrimidin-5-yl]-3,3dimethylbutanoate]: the mortality at 500 ppm in [1] was 80 to 100%; in assay [2] it was 50 to 79%; in assay [3], < 50%; in assay [4] it was < 50%; in [5], < 50%; in [6], < 50%. Also, the mortality at 500 ppm in [7] was 80 to 100%; in assay [8], < 50%; in assay [10], < 50%. Moreover, the pest or weed control at 500 ppm in [9] was < 50%.
Regarding `COCc1c(F)c(F)c(CSC(=O)C(c2cnc(C(C)(C)C)nc2)C(C)(C)C)c(F)c1F` (racemic) [Compound 195, 4-(methoxymethyl)-2,3,5,6-tetrafluorobenzyl (RS)-2-[2-(1,1-dimethylethyl)pyrimidin-5-yl]-3,3-dimethylbutanthioate], the mortality at 500 ppm in [1] is 80 to 100%; in [2] it was 80 to 100%; in [3], 80 to 100%; in [4], < 50%; in assay [5], 80 to 100%; in assay [6], 80 to 100%. Further, the mortality at 500 ppm was 80 to 100% in assay [7], 80 to 100% in assay [8] and < 50% in assay [10]. Moreover, the pest or weed control at 500 ppm in [9] was < 50%.
In the case of `C=CCc1c(F)c(F)c(COC(=O)C(c2cnc(C(C)(C)C)nc2)C(C)(C)C)c(F)c1F` (racemic) [Compound 5, 4-(prop-2-en-1-yl)-2,3,5,6-tetrafluorobenzyl (RS)-2-[2-(1,1-dimethylethyl)pyrimidin-5-yl]-3,3-dimethylbutanoate], the mortality at 500 ppm in assay [1] is 80 to 100%; in [2], 80 to 100%; in assay [3] it was < 50%; in assay [4], < 50%; in assay [5], 50 to 79%; in assay [6], < 50%. Also, the mortality at 500 ppm in assay [7] was 50 to 79%; in assay [8], 80 to 100%; in [10] it was < 50%. Also, the pest or weed control at 500 ppm in [9] fell in the range of 50 to 79%.
Regarding `CC(C)(C)c1ncc(C(C(=O)OCc2cccc(Oc3ccccc3)n2)C(C)(C)C)cn1` (racemic) [Compound 9, (6-phenoxypyrid-2-yl)methyl (RS)-2-[2-(1,1-dimethylethyl)pyrimidin-5-yl]-3,3-dimethylbutanoate], the mortality at 500 ppm in [1] was 80 to 100%; in [2], 80 to 100%; in assay [3] it was 80 to 100%; in assay [4], 80 to 100%; in assay [5], 80 to 100%; in assay [6], 50 to 79%. In addition, the mortality at 500 ppm in [7] lay in the range of 80 to 100%; in assay [8] it was 80 to 100%; in [10], 50 to 79%. Moreover, in [9], the pest or weed control at 500 ppm lay within 80 to 100%.
Consider `COCc1c(F)c(F)c(COC(=O)C(c2cnc(-c3ccccc3Cl)nc2)C(C)(C)C)c(F)c1F` (racemic) [Compound 208, 2,3,5,6-tetrafluorbenzyl-4-(methoxymethyl)-benzyl (RS)-2-[2-(2-chlorophenyl)pyrimidin-5-yl]-3,3-dimethylbutanoate], for which the mortality at 500 ppm was 80 to 100% in assay [1]; 80 to 100% in assay [2]; < 50% in assay [3]; < 50% in assay [4]; < 50% in assay [5]; < 50% in assay [6]. Besides, the mortality at 500 ppm is 80 to 100% in [7], < 50% in [8] and < 50% in assay [10]. The pest or weed control at 500 ppm in assay [9] is < 50%.
`CCOc1c(F)c(COC)c(F)c(F)c1COC(=O)C(c1cnc(C(C)(C)C)nc1)C(C)(C)C` (racemic) [Compound 185, 2,3,5-trifluoro-6-ethoxy-4-(methoxymethyl)benzyl (RS)-2-[2-(1,1-dimethylethyl)pyrimidin-5-yl]-3,3-dimethylbutanoate]: the mortality at 500 ppm is 80 to 100% in assay [1]; 80 to 100% in [2]; < 50% in assay [3]; 50 to 79% in assay [4]; 80 to 100% in assay [5]; < 50% in [6]. Further, the mortality at 500 ppm in [7] is 80 to 100%; in assay [8], 80 to 100%; in assay [10], < 50%. Besides, the pest or weed control at 500 ppm in assay [9] is 80 to 100%.
`CC(C)=NOCc1c(F)c(F)c(COC(=O)C(c2cnc(C(C)(C)C)nc2)C(C)(C)C)c(F)c1F` (racemic) [Compound 178, 4-(Prop-2-ylideneaminoxymethyl)-2,3,5,6-tetrafluorobenzyl (RS)-2-[2-(1,1-dimethylethyl)pyrimidin-5-yl]-3,3dimethylbutanoate]: the mortality at 500 ppm is 80 to 100% in assay [1]; 80 to 100% in assay [2]; < 50% in assay [3]; < 50% in [4]; < 50% in assay [5]; < 50% in assay [6]. Besides, the mortality at 500 ppm is 80 to 100% in assay [7], < 50% in assay [8] and < 50% in assay [10]. Besides, in [9], the pest or weed control at 500 ppm was < 50%.
For `CCOCc1c(F)c(F)c(COC(=O)C(c2cnc(C(C)(C)C)nc2)C(C)(C)C)c(OCC)c1F` (racemic) [Compound 188, 2,3,5-trifluoro-6-ethoxy-4-(ethoxymethyl)benzyl (RS)-2-[2-(1,1-dimethylethyl)pyrimidin-5-yl]-3,3-dimethylbutanoate], the mortality at 500 ppm in [1] is 80 to 100%; in assay [2] it was 80 to 100%; in [3] it was < 50%; in assay [4], < 50%; in [5], 50 to 79%; in assay [6], < 50%. In addition, the mortality at 500 ppm in assay [7] is 50 to 79%; in [8], 80 to 100%; in assay [10], < 50%. Besides, the pest or weed control at 500 ppm in assay [9] was < 50%.
In the case of `CCC(C)(C)c1ncc(C(C(=O)OCc2ccc(F)c(Oc3ccccc3)c2)C(C)(C)C)cn1` (racemic) [Compound 68, 4-fluoro-3-phenoxybenzyl (RS)-2-[2-(1,1-dimethylpropyl)pyrimidin-5-yl]-3,3-dimethylbutanoate], the mortality at 500 ppm is 80 to 100% in assay [1]; 80 to 100% in [2]; < 50% in assay [3]; < 50% in [4]; 80 to 100% in [5]; < 50% in assay [6]. For the same compound, the mortality at 500 ppm is 80 to 100% in assay [7], 50 to 79% in assay [8] and < 50% in assay [10]. Further, the pest or weed control at 500 ppm in [9] was < 50%.
